# Earlier results as cited in patent US20200306252A1, “COMPOSITION FOR PREVENTING AND/OR TREATING DEMENTIA” (priority 2019, published 2020).
# Columns and labels:
# β-amyloid = conditions: cellular experiments
# patients with dementia = conditions: clinical experiments; curcumin alone
# neural cells = conditions: cellular experiments
smiles,measurement,setting,value
COc1cc(/C=C/C(=O)CC(=O)/C=C/c2ccc(O)c(OC)c2)ccc1O [curcumin],reducing β-amyloid aggregation,β-amyloid,effective
same,bioavailability,,poor
same,alleviation of the symptoms of patients with dementia,patients with dementia,cannot effectively alleviate the symptoms
same,protecting neural cells,neural cells,effective
